Reference: the NIST ThermoML archive (doi:10.1016/j.jct.2011.04.008)

Assay: xn = mol fraction of the nth substance listed
Conditions: 101 kPa, Liquid; for viscosity: Capillary tube (Ostwald / Ubbelohde) method; for speed of sound: Linear variable-path acoustic interferometer; for mass density: Pycnometric method

Cc1ccccc1 [toluene] + CC(=O)OC(C)(C)C
x2 = 0
Conditions	mass density [kg/m3]	speed of sound [m/s]	viscosity [mPa·s]
298.15 K	862.2	1312	0.556
308.15 K	852.5	1270	0.494

c1ccccc1 [benzene] + CC(=O)OC(C)(C)C
x2 = 0
Conditions	mass density [kg/m3]	speed of sound [m/s]	viscosity [mPa·s]
298.15 K	873	1296	0.609
308.15 K	862	1260	0.539

CC(=O)OC(C)(C)C [1,1-dimethylethyl ethanoate] + Cc1ccccc1
Conditions	mass density, 298.15 K [kg/m3]	mass density, 308.15 K [kg/m3]	speed of sound, 298.15 K [m/s]	speed of sound, 308.15 K [m/s]	viscosity, 298.15 K [mPa·s]	viscosity, 308.15 K [mPa·s]
x1 = 0.0976	861.9	851.9	1275	1232	0.567	0.502
x1 = 0.1986	861.6	851.2	1242	1197	0.577	0.509
x1 = 0.2993	861.2	850.5	1213	1168	0.588	0.516
x1 = 0.3975	860.8	849.9	1187	1143	0.599	0.524
x1 = 0.4983	860.5	849.4	1165	1120	0.611	0.533
x1 = 0.5978	860.3	848.9	1145	1101	0.623	0.542
x1 = 0.6975	860.2	848.7	1128	1085	0.636	0.553
x1 = 0.7972	860.3	848.7	1113	1072	0.65	0.565
x1 = 0.8987	860.6	848.9	1101	1062	0.666	0.58
x1 = 1	861.1	849.4	1092	1055	0.683	0.596

CCc1ccccc1 [ethylbenzene] + CC(=O)OC(C)(C)C
x2 = 0
Conditions	mass density [kg/m3]	speed of sound [m/s]	viscosity [mPa·s]
298.15 K	864.4	1325	0.631
308.15 K	855.4	1280	0.569

CC(=O)OC(C)(C)C [1,1-dimethylethyl ethanoate] + CCc1ccccc1
Conditions	mass density, 298.15 K [kg/m3]	mass density, 308.15 K [kg/m3]	speed of sound, 298.15 K [m/s]	speed of sound, 308.15 K [m/s]	viscosity, 298.15 K [mPa·s]	viscosity, 308.15 K [mPa·s]
x1 = 0.0979	863.9	854.7	1287	1245	0.635	0.571
x1 = 0.1974	863.3	853.9	1254	1214	0.639	0.573
x1 = 0.2989	862.6	852.9	1224	1186	0.641	0.573
x1 = 0.3983	861.9	852	1198	1161	0.644	0.574
x1 = 0.4976	861.3	851.1	1176	1139	0.647	0.575
x1 = 0.5986	860.7	850.3	1155	1119	0.651	0.576
x1 = 0.6977	860.4	849.7	1137	1101	0.656	0.579
x1 = 0.7979	–	849.3	1121	1085	0.663	0.582
x1 = 0.8978	860.5	849.2	1106	1069	0.671	0.588
x1 = 1	861.1	849.4	1092	1055	0.683	0.596

CC(=O)OC(C)(C)C [1,1-dimethylethyl ethanoate] + c1ccccc1
Conditions	mass density, 298.15 K [kg/m3]	mass density, 308.15 K [kg/m3]	speed of sound, 298.15 K [m/s]	speed of sound, 308.15 K [m/s]	viscosity, 298.15 K [mPa·s]	viscosity, 308.15 K [mPa·s]
x1 = 0.0987	870.6	859.3	1254	1215	0.613	0.54
x1 = 0.1999	868.5	856.8	1220	1179	0.618	0.542
x1 = 0.299	866.7	854.9	1192	1150	0.623	0.544
x1 = 0.3982	865.3	853.2	1169	1127	0.629	0.548
x1 = 0.498	864.1	851.9	1149	1107	0.636	0.552
x1 = 0.5995	863	850.8	1133	1091	0.643	0.558
x1 = 0.6996	862.3	850	1120	1079	0.651	0.565
x1 = 0.7999	861.7	849.5	1109	1068	0.661	0.574
x1 = 0.8993	861.3	849.4	1099	1060	0.671	0.584
x1 = 1	861.1	849.4	1092	1055	0.683	0.596
